These are literature values, as cited in patent US20250319149A1, “COMPOSITIONS FOR TREATING IMBALANCES OF THE GUT MICROBIOTA” (Provexis Natural Products Limited, priority 2022, published 2025).

This data set concerns TMAO-induced atherosclerosis. As to conditions: mice; Chen et al.

`Oc1ccc(C=Cc2cc(O)cc(O)c2)cc1` [resveratrol]: the TMAO-induced atherosclerosis result was “attenuated”.
